Tests used:
[1] = test system: adipose-derived mesenchymal stem cells (AdMSCs) treated with TGFβ1; experiment: Adipogenic and fibrogenic gene expression (RT-PCR) in AdMSCs treated with TGFβ1 with or without rosiglitazone; type: cell-based, mouse; conditions: TGFβ1 10 ng/ml + rosiglitazone 10 μM, 7 days, v. TGFβ1 without rosiglitazone
Protocol: Previous studies have established that PPARg agonists reverse the effects of pro-fibrotic transforming growth factor-beta (TGFβ) ligands.
Mice adipose-derived stem cells (ADSCs) were isolated from adult male C57BL/6J mice inguinal fat pad. ADSCs were cultured in DMEM/F12 (Sigma, Logan, UT) supplemented with 10% Fetal Bovine Serum (FBS) (Sigma) and antibiotics (penicillin and streptomycin, Hyclone). ADSCs were maintained at 37° C. under a 5% CO2 atmosphere. For rosiglitazone treatment experiment, ADSCs were treated with/without recombinant TGFβ1 (10 ng/ml) (Invitrogen, USA) and rosiglitazone (10 μM) for 7 days after seeded ([…]) in 6-well plates.
Total RNA was isolated from ADSCs using TRI reagent and RNA extraction kit (Zymo Research, Irvine, CA). First-strand cDNA was synthesized by using iScript RT-PCR mix (BioRad, Hercules, CA) according to user manual. SYBR green qPCR master Mix (BioRad, Hercules, CA), primers, and cDNA were mixed in a final reaction volume of 10 μl. Real time polymerase chain reaction (RT-PCR) were performed by using Applied Biosystems 7300 Fast Real-Time PCR System (AB) according to the manufacturer's instructions.

[2] = test system: hindlimb secondary lymphedema after lymphadenectomy; experiment: Mouse hind limb lymphedema model (lymphadenectomy): limb measurements and histology; type: in vivo; conditions: rosiglitazone 10 mg/kg i.p. twice a week; for Dermal thickness / Overall skin thickness / Subdermal layer (fibroadipose tissue) thickness: H&E
Excerpt: Evans blue (Sigma) (4% in PBS) was filtered and injected into mouse foot pad to stain lymph nodes in hind limb. Mouse hind limb secondary lymphedema was induced by surgical excision of the ipsilateral superficial inguinal, popliteal, deep inguinal lymph nodes, and the femoral lymphatic vessel. During surgical procedures, electrocauterization were used to prevent bleeding.
(§1) A total of 32 mice underwent lymphedema surgery were randomly assigned into two groups, lymphedema group and rosiglitazone group (n=16). Rosiglitazone (Combi-Blocks, San Diego, USA) was dissolved in DMSO at the concentration of 25 mg/ml, and was diluted in corn oil to the final concentration of 2.5 mg/ml before injection. Mice in rosiglitazone group were intraperitoneally injected with rosiglitazone (10 mg/kg) twice a week from the day of surgery (day 0, 3, 7, 10, 14, 17). Mice in lymphedema group were injected with corn oil only at same time point. 8 mice in lymphedema group and rosiglitazone group were sacrificed on day 7 (n=8 per group), the rest of them were sacrificed on day 21 (n=8 per group). Another 18 mice were randomly divided into three groups, normal control group, lymphedema group, and rosiglitazone group, skin cells from these mice were isolated and used for flow cytometry analysis at day 7 (n=3 per group per staining).
Sacrifice was performed via CO2 asphyxiation. Skin and muscle of hind limb were harvested, fixed in 10% formalin for 48 h followed by 70% ethanol for histological assessment. Formalin-fixed tissues were then dehydrated, embedded in paraffin, and sectioned with 5-micron-thickness.
Sections were stained either with Hematoxylin and Eosin (H&E) or Picrosirius Red according to standard protocol, and used to assess the overall skin thickness, dermal thickness, fibroadipose tissue thickness, and fibrosis, respectively. Quantitative histological analysis was performed using samples from day 7 and 21.
Images were captured by using Olympus BX53 (UCMAD3, T7, Japan) and all-in-one Keyence (Itasca, IL, USA) microscopes and assessed by ImageJ (version 1.52a; […]) by two independent researchers under blinded conditions. Fibrosis was assessed with the image thresholding plugin in ImageJ software, normalization is based on the length of the section (v1.52a; […]).

[3] = test system: PDGFRα+ cells; experiment: Flow cytometry of hindlimb skin after lymphadenectomy; type: in vivo, mouse
Protocol: as §1
Flow cytometry was performed using single-cell suspensions obtained from skin and subcutaneous tissue. 1×1 cm tissue harvested from the mice hindlimb were minced with scissors and digested by using collagenase type I (1 mg/ml) and dispase (2 mg/ml) at 37° C. on a shaker. All suspensions were filtered through 100 μm filters.
Cells were then stained with following conjugated antibodies: APC-PDGFRα (1:100), APC-PDGFRβ (1:100), HCS LipidTOX red neutral lipid stains (1:200), APC-CD45 (1:150), PE-CD3 (1:150), PerCP-Cy5-CD4 (1:150). Flow cytometry was performed on the Beckman Cytoflex FCM using CytExpert software (Beckman Coulter, CA, USA) and data were analyzed with FlowJo software (Tree Star; Ashland, OR).

[4] = systemic rosiglitazone [Ref. 20,21]; cited from earlier work
[5] = 1 week after lymphadenectomy, normalized to uninjured hindlimb
[6] = 1 cm×1 cm area of skin, day 7 after lymphadenectomy

**Q.** For `CN(CCOc1ccc(CC2SC(=O)NC2=O)cc1)c1ccccn1` (stereo not shown) [rosiglitazone], which Adipoq expression level [1] is on record?
**A.** Its Adipoq expression level is 2.40.

**Q.** And the Col1a1 expression level [1]?
**A.** The Col1a1 expression level was 0.76.

**Q.** What about the Ctgf expression level [1] of the same compound?
**A.** Its Ctgf expression level is 0.80.

**Q.** What about the Fn1 expression level [1] of the same compound?
**A.** The Fn1 expression level was 0.82.

**Q.** And the Lpl expression level [1]?
**A.** The Lpl expression level was 2.53.

**Q.** What about the Pdgfra expression level [1] of the same compound?
**A.** The Pdgfra expression level was 0.72.

**Q.** What about the Normalized edema size [2, 5] of the same compound?
**A.** Its Normalized edema size is 1.08.

**Q.** What about the Normalized hindlimb circumference [2, 5] of the same compound?
**A.** Its Normalized hindlimb circumference is 1.31.

**Q.** What about the Dermal thickness ([2]; 1 week) of the same compound?
**A.** Its Dermal thickness is 438.54.

**Q.** What about the Overall skin thickness ([2]; 1 week) of the same compound?
**A.** The Overall skin thickness was 924.66 μm.

**Q.** And the “Subdermal layer (fibroadipose tissue) thickness” value ([2]; 1 week)?
**A.** The value was 486.12 μm.

**Q.** And the “Normalized hindlimb fibrosis (picrosirius red)” value ([2]; 1 week)?
**A.** The value was 0.130.

**Q.** And the Dermal thickness ([2]; 3 week)?
**A.** The Dermal thickness was 403.76.

**Q.** And the Overall skin thickness ([2]; 3 week)?
**A.** The Overall skin thickness was 646.12 μm.

**Q.** What about the “Subdermal layer (fibroadipose tissue) thickness” value ([2]; 3 week) of the same compound?
**A.** Its value is 242.36 μm.

**Q.** And the “Normalized hindlimb fibrosis (picrosirius red)” value ([2]; 3 week)?
**A.** Its value is 0.128.

**Q.** And the “Absolute number of PDGFRα+LipidTOX+ cells” value [3, 6]?
**A.** The value was 862.

**Q.** What about the “FSC^high PDGFRα+LipidTOX+ cells (cell size)” value [3, 6] of the same compound?
**A.** Its value is 73.

**Q.** What about the “PDGFRα+ cells, absolute count” value [3, 6] of the same compound?
**A.** Its value is 0.9×10^3.

**Q.** What about the “PDGFRα+LipidTOX+ cells as a proportion of total PDGFRα cells” value ([3]; day 7 after lymphadenectomy, results section) of the same compound?
**A.** The value was 86%.

**Q.** What about the “Share of PDGFRα+ cells that were LipidTOX+” value ([3]; rosiglitazone-treated samples) of the same compound?
**A.** The value was “over 90%”.

**Q.** What about the Adverse effects [4] of the same compound?
**A.** Its Adverse effects is “fluid retention, heart failure, and fractures”.
